Laboratory results published in patent US7601850B2, “Phenyl-thiophene type vitamin D receptor modulators” (Eli Lilly and Company, priority 2002, dated 2009).
Where two headings read alike, the source gives them in different places.

Columns and labels:
rat osteocalcin promoter = assay: OCN (osteocalcin) promoter assay in RG-15 (ROS 17/2.8) cells; format: cell-based
Experimental: 4. The OCN Promoter test is described in the “Assay” section of the Description, infra.
3. The OCN (Osteocalcin) Promoter Assay
The OCN Promoter Assay is an indicator and marker for osteoporosis. Desired assay results are EC50 less than or equal to 325 nM. Preferred assay results are less than 50 nM.
(3) Materials and Method for The OCN Promoter Assay:
The activation of osteocalcin by VDR ligands was evaluated in a rat osteoblast-like cell line RG-15 (ROS 17/2.8) stably expressing rat osteocalcin promoter fused with luciferase reporter gene. The stable cell lines were established as reported before (Activation of Osteocalcin Transcription involves interaction of protein kinase A- and Protein kinase C-dependent pathways. Boguslawski, G., Hale, L. V., Yu, X.-P., Miles, R. R., Onyia, J. E., Santerre R. F., Chandrasekhar, S. J Biol. Chem. 275, 999-1006, 2000). Confluent RG-15 cells maintained in DMEM/F-12 medium (3:1) containing 5% FBS, 300 µg/ml G418 and at 37° C. under 5% CO2/95% air atmosphere were trypsinized (0.25% trypsin) and plated into white opaque 96-well cell culture plates (25000 cells/well). After 24 hr, cells (in DMEM/F-12 medium+2% FBS) were treated with various concentrations of compounds, dissolved in DMSO. The final DMSO concentration remained at 0.01% (v/v). After 48 hr treatment, the medium was removed, cells were lysed with 50 µl of lysis buffer (From Luciferase reporter assay system, Roche Diagnostics, Indianapolis, Ind.) and assayed for luciferase activity using the Luciferase Reporter Gene Assay kit from Boehringer Mannheim as per manufacturer's specifications.

KERtr cells = assay: Keratinocyte proliferation assay (BrdU incorporation); format: cell-based; conditions: Homo sapiens, Keratinocyte, 72 h, KERtr human skin keratinocytes, 72 hr treatment, read-out: Kera. Prolif. IC50
Experimental: 6. The keratinocyte proliferation assay is described in the “Assay” section of the Description, infra.
5. The Keratinocyte Proliferation Assay
This Assay is indicative for the treatment of psoriasis.
(5) The Keratinocyte Proliferation Assay:
KERtr cells (Human skin keratinocyte transformed with a retrovirus vector, obtained from ATCC) were plated in 96-well flat-bottomed plates (3000 cells/well) in 100 µl keratinocyte serum free medium supplemented with bovine pituitary extract in the absence of EGF (Life Technologies, Rockville, Md.) and incubated at 37° C. for two days. The cells were treated with various concentrations of VDR ligands (ten-fold serial dilution from 10,000 nM to 0.1 nM in triplicate), dissolved in 100 µl keratinocyte serum free medium supplemented with bovine pituitary extract in the absence of EGF and incubated at 37° C. for 72 hr. […] Potency values (IC50) values were determined as the concentration (nM) of compound that elicited a half-maximal response.

Row | Compound | EC50 (rat osteocalcin promoter; Rattus norvegicus) [nM] | IC50 (KERtr cells) [nM] | EC50 (rat osteocalcin promoter) [nM]
1 | CCC(CC)(c1ccc(OCC(O)C(C)(C)C)c(C)c1)c1cc(C)c(COCC(=O)O)s1 (stereo not shown) [Ex. 124, 2-(5-{1-ethyl-1-[4-(2-hydroxy-3,3-dimethyl-butoxy)-3-methyl-phenyl]-propyl}-3-methyl-thiophen-2-yl-methoxy)acetic acid] | 101 | 216 | –
2 | CCC(CC)(c1ccc(OCC(=O)C(C)(C)C)c(C)c1)c1cc(C)c(S(=O)(=O)NC(C)=O)s1 [Ex. 160, 5-{1-[4-(3,3-Dimethyl-2-oxo-butoxy)-3-methyl-phenyl]-1-ethyl-propyl}-3-methyl-thiophene-2-sulfonic acid acetyl-amide] | 40.3 | 1100 | –
3 | CCC(=O)NS(=O)(=O)c1sc(C(CC)(CC)c2ccc(OCC(O)C(C)(C)C)c(C)c2)cc1C (stereo not shown) [Ex. 159, 5-{1-Ethyl-1-[4-(2-hydroxy-3,3-dimethyl-butoxy)-3-methyl-phenyl]-propyl}-3-methyl-thiophene-2-sulfonic acid propionyl-amide] | 89.7 | 234 | –
4 | CCC(CC)(c1ccc(OCC(O)C(C)(C)C)c(C)c1)c1cc(C)c(S(=O)(=O)NCCC(=O)O)s1 (stereo not shown) [Ex. 142] | – | 300 | –
5 | CCC(CC)(c1ccc(OCS(C)(=O)=O)c(C)c1)c1cc(C)c(CCC(O)C(C)(C)C)s1 (single isomer, unassigned) [Ex. 15A] | – | 76 | –
6 | CCC(CC)(c1ccc(OCC(O)C(C)(C)C)c(C)c1)c1cc(C)c(C(=O)N[C@H](C)C(=O)OC)s1 (single isomer, unassigned) [Ex. 66, D-2-[(5-{1-Ethyl-1-[4-(2-hydroxy-3,3-dimethyl-butoxy)-3-methyl-phenyl]-propyl}-3-methyl-thiophene-2-carbonyl)-amino]-propionic acid methyl ester] | – | 277 | 28.4
7 | CCC(CC)(c1ccc(OCC(O)C(C)(C)C)c(C)c1)c1cc(C)c(C(=O)N(C)C)s1 (stereo not shown) [Ex. 4] | 147 | 122 | –
8 | CCc1cc(C(CC)(CC)c2ccc(S(=O)(=O)NCC(=O)O)s2)ccc1OCC(O)C(C)(C)C (stereo not shown) [Ex. 155] | 18.4 | 788 | –
9 | CCC(CC)(c1ccc(OCC(O)C(C)(C)C)c(C)c1)c1cc(C)c(C(=O)OC)s1 (stereo not shown) [Ex. 6A] | – | 439 | –
10 | CCC(CC)(c1ccc(OC[S+](C)[O-])c(C)c1)c1cc(C)c(CC[C@@H](O)C(C)(C)C)s1 (stereo partly shown) [Ex. 16] | 31 | 257 | –
11 | CCC(CC)(c1ccc(OCC(O)C(C)(C)C)c(C)c1)c1cc(C)c(CS(C)(=O)=O)s1 (single isomer, unassigned) [Ex. 11B] | – | 216 | –
12 | CCC(CC)(c1ccc(OCC(O)C(C)(C)C)c(C)c1)c1cc(C)c(-c2n[nH]c(=S)o2)s1 (stereo not shown) [Ex. 173] | – | 478 | –
13 | CCC(CC)(c1ccc(OCC(O)C(C)(C)C)c(C)c1)c1cc(C)c(CS(C)(=O)=O)s1 (stereo not shown) [Ex. 10] | 51.3 | 25 | –
14 | CCC(CC)(c1ccc(OCC(O)C(C)(C)C)c(C)c1)c1cc(C)c(C(=O)NCC(=O)O)s1 (single isomer, unassigned) [Ex. 48] | – | 71.5 | –
15 | CCC(CC)(c1ccc(CCC(O)C(C)(C)C)c(C)c1)c1cc(C)c(S(=O)(=O)NCC(=O)O)s1 (stereo not shown) [Ex. 179, (5-{1-Ethyl-1-[4-(3-hydroxy-4,4-dimethyl-pentyl)-3-methyl-phenyl]-propyl}-3-methyl-thiophene-2-sulfonylamino)-acetic acid] | 27.9 | 221 | –
16 | CCC(CC)(c1ccc(OCC(O)C(C)(C)C)c(C)c1)c1cc(C)c(S(=O)(=O)NC(C)=O)s1 (stereo not shown) [Ex. 158, 5-{1-Ethyl-1-[4-(2-hydroxy-3,3-dimethyl-butoxy)-3-methyl-phenyl]-propyl}-3-methyl-thiophene-2-sulfonic acid acetyl-amide] | 85 | 500 | –
17 | CCC(CC)(c1ccc(OCC(=S)C(C)(C)C)c(C)c1)c1cc(C)c(S(=O)(=O)N[C@H](C)C(=O)O)s1 [Ex. 147] | 128 | – | –
18 | CCC(CC)(c1ccc(OCC(=O)C(C)(C)C)c(C)c1)c1cc(C)c(CN(CC(=O)O)C(C)=O)s1 [Ex. 133, 2-[N-Acetyl-(5-{1-[4-(3,3-dimethyl-2-oxo-butoxy)-3-methyl-phenyl]-1-ethyl-propyl}-3-methyl-thiophen-2-yl-methyl)-amino]-acetic acid] | 49.2 | – | –

Row | Compound | EC50 (rat osteocalcin promoter; Rattus norvegicus) [nM] | IC50 (KERtr cells) [nM] | EC50 (rat osteocalcin promoter) [nM]
19 | CCc1cc(C(CC)(CC)c2ccc(C(=O)O)s2)ccc1OCC(C)(O)C(C)(C)C (stereo not shown) [Ex. 107, 3′-[4-(2-hydroxy-2,3,3-trimethylbutoxy)-3-ethylphenyl]-3′-[5-carboxy-thiophen-2-yl]pentane] | 42.3 | – | –
20 | CCOC(=O)CCc1ccc(C(CC)(CC)c2cc(C)c(CCC(O)C(C)(C)C)s2)cc1C (single isomer, unassigned) [Ex. 28] | 0.76 | – | –
21 | CCCc1cc(C(CC)(CC)c2ccc(C(=O)O)s2)ccc1OCC(C)(O)C(C)(C)C (stereo not shown) [Ex. 111, 3′-[4-(2-hydroxy-2,3,3-trimethylbutoxy)-3-n-propylphenyl]-3′-[5-carboxy-thiophen-2-yl]pentane] | 34.5 | – | –
22 | CCC(CC)(c1ccc(CCC(O)C(C)(C)C)c(C)c1)c1cc(C)c(C(=O)NCC(=O)O)s1 (stereo not shown) [Ex. 177, [(5-{1-Ethyl-1-[4-(3-hydroxy-4,4-dimethyl-pentyl)-3-methyl-phenyl]-propyl}-3-methyl-thiophene-2-carbonyl)-amino]-acetic acid] | 46 | 81.3 | –
23 | CCC(CC)(c1ccc(OCC(=O)C(C)(C)C)c(C)c1)c1cc(C)c(C(=O)NCCS(C)(=O)=O)s1 [Ex. 41, 5-{1-[4-(3,3-Dimethyl-2-oxo-butyoxy)-3-methyl-phenyl]-1-ethyl-propyl}-3-methyl-thiophene-2-carbolic acid (2-methanesulfonyl-ethyl]-amide] | 300 | – | –
24 | CCc1cc(C(CC)(CC)c2ccc(S(=O)(=O)NCC(=O)OC)s2)ccc1OCC(O)C(C)(C)C (stereo not shown) [Ex. 154] | 20.5 | – | –
25 | CCC(CC)(c1ccc(OCC(O)C(C)(C)C)c(C)c1)c1cc(C)c(CO)s1 (single isomer, unassigned) [Ex. 126] | 111 | – | –
26 | CCC(CC)(c1ccc(OCC(=O)C(C)(C)C)c(C)c1)c1cc(C)c(S(=O)(=O)N(C)CCC(=O)O)s1 [Ex. 145] | 222 | 702 | –
27 | CCC(CC)(c1ccc(OCC(O)C(C)(C)C)c(C)c1)c1cc(C)c(S(=O)(=O)Nc2ccccc2C(=O)O)s1 (stereo not shown) [Ex. 149] | 98.3 | – | –
28 | CCC(CC)(c1ccc(OCC(O)C(C)(C)C)c(C)c1)c1cc(C)c(C(=O)NCCS(C)(=O)=O)s1 (single isomer, unassigned) [Ex. 40, 5-[1-ethyl-1-[4-(2-hydroxy-3,3-dimethyl-butoxy)-3-methylphenyl]propyl]-3-methylthiophene-2-carboxylic acid (2-methylsulfonyl-ethyl) amide] | – | – | 613
29 | CCC(CC)(c1ccc(CCC(=O)O)c(C)c1)c1cc(C)c(CCC(O)C(C)(C)C)s1 (stereo not shown) [Ex. 29] | 8.65 | 4.6 | –
30 | CCC(CC)(c1ccc(OCC(O)C(C)(C)C)c(C)c1)c1cc(C)c(S(=O)(=O)NCC(=O)O)s1 (stereo not shown) [Ex. 137] | 24.2 | – | –
31 | CCC(CC)(c1ccc(OCC(O)C(C)(C)C)c(C)c1)c1cc(C)c(C(=O)N[C@@H](C)C(=O)OC)s1 (single isomer, unassigned) [Ex. 64, L-2-[(5-{1-Ethyl-1-[4-(2-hydroxy-3,3-dimethyl-butoxy)-3-methyl-phenyl]-propyl}-3-methyl-thiophene-2-carbonyl)-amino]-propionic acid methyl ester] | – | – | 4.1
32 | CCC(CC)(c1ccc(OCC(O)C(C)(C)C)c(C)c1)c1cc(C)c(S(=O)(=O)NC(C)(C)C(=O)OC)s1 (stereo not shown) [Ex. 148] | 236 | – | –
33 | CCC(CC)(c1ccc(OCC(O)C(C)(C)C)c(C)c1)c1cc(C)c(C(=O)N2CCC[C@H]2C(=O)O)s1 (stereo partly drawn) [Ex. 75, L-1-(5-{1-Ethyl-1-[4-(2-hydroxy-3,3-dimethyl-butoxy)-3-methyl-phenyl]-propyl}-3-methyl-thiophene-2-carbonyl)-pyrrolidine-2-carboxylic acid] | – | – | 423
34 | CCC(CC)(c1ccc(OCC(=O)C(C)(C)C)c(C)c1)c1cc(C)c(C(=O)OC)s1 [Ex. 1] | 140 | – | –
35 | CCC(CC)(c1ccc(C(=O)OC)c(C)c1)c1cc(C)c(CCC(=O)C(C)(C)C)s1 [Ex. 20] | 862 | – | –
36 | CCCc1cc(C(CC)(CC)c2ccc(C(=O)O)s2)ccc1OCC(C)(O)C(C)(C)C (single isomer, unassigned) [Ex. 112, 3′-[4-(2-hydroxy-2,3,3-trimethylbutoxy)-3-n-propylphenyl]-3′-[5-carboxy-thiophen-2-yl]pentane] | – | – | 5
